System: NRK
Test: Compound was tested for its morphological reversion activity on srctsNRK cells
Format: functional
Conditions: Rattus norvegicus, read-out: MEC

Which minimal effective concentration does the source give for `COCOC[C@@H](C[S+]([O-])CSC)NC(=O)/C=C/c1c(C)nc(O)nc1O` (some centres not stated) here?
The minimal effective concentration was 60 µM.

How did the minimal effective concentration turn out when `Cc1nc(O)nc(O)c1/C=C/C(=O)N[C@@H](CO)C[S+]([O-])C[S+](C)[O-]` (some centres not stated) was run?
Its minimal effective concentration is 530 µM.

`Cc1nc(O)nc(O)c1/C=C/C(=O)N[C@H](CO)C[S+]([O-])C[S+](C)[O-]` (some centres not stated) was tested. Which minimal effective concentration did it give?
The minimal effective concentration was 530 µM.

For `CCSC[S+]([O-])C[C@H](CO)NC(=O)/C=C/c1c(C)nc(O)nc1O` (some centres not stated), which minimal effective concentration is on record?
Its minimal effective concentration is 20 µM.

How did the minimal effective concentration turn out when `CCC(C)SC[S+]([O-])C[C@H](CO)NC(=O)/C=C/c1c(C)nc(O)nc1O` (some centres not stated) was run?
The minimal effective concentration was 180 µM.

How did the minimal effective concentration turn out when `CSC[S+]([O-])C[C@H](CO)NC(=O)/C=C/c1c(C)[nH]c(=O)[nH]c1=O` (some centres not stated) was run?
The minimal effective concentration was 6.5 µM.

With `CCCCSC[S+]([O-])C[C@H](CO)NC(=O)/C=C/c1c(C)nc(O)nc1O` (some centres not stated) as the molecule, how does the minimal effective concentration read?
Its minimal effective concentration is 60 µM.

Reference: ChEMBL document CHEMBL1130687, “Synthesis and morphological reversion activity on srctsNRK cells of pyrimidinylpropanamide antibiotics, sparsomycin, sparoxomycin A1, A2, and their analogues” (1998)
